# Oligonucleotides are written 5' to 3', each unit as a sugar letter and its base; * is a phosphorothioate linkage, no mark a phosphodiester; rarer units and linkages stand in square brackets, end groups in braces. Plain capitals give the bases only. d = 2'-deoxy (DNA); r = 2'-OH (RNA)
# Target: UBE2G1
# Assay: reporter assay of Huesken 2005
# Conditions: siRNA
# Further: test concentration or dose not given here.
row,Substance,normalised inhibition (eCFP-eYFP dual reporter) [%]
1,sense rArCrArCrUrGrUrGrGrArArArCrCrArUrCrArUdTdT / antisense rArUrGrArUrGrGrUrUrUrCrCrArCrArGrUrGrUdGdG,89.3
2,sense rArCrCrUrCrCrUrArArArArUrGrArArArUrUrCdTdT / antisense rGrArArUrUrUrCrArUrUrUrUrArGrGrArGrGrUdCdG,39.5
3,sense rArCrCrUrGrCrUrArArUrGrUrUrGrArUrGrCrUdTdT / antisense rArGrCrArUrCrArArCrArUrUrArGrCrArGrGrUdGdA,93.9
4,sense rArGrArCrCrCrUrArArUrGrGrArGrArCrUrCrAdTdT / antisense rUrGrArGrUrCrUrCrCrArUrUrArGrGrGrUrCrUdGdC,89.8
5,sense rArGrArCrUrCrArCrCrUrGrCrUrArArUrGrUrUdTdT / antisense rArArCrArUrUrArGrCrArGrGrUrGrArGrUrCrUdCdC,81.1
6,sense rArGrArUrArCrArCrUrUrUrArUrGrArArGrGrUdTdT / antisense rArCrCrUrUrCrArUrArArArGrUrGrUrArUrCrUdGdG,78.7
7,sense rArGrArUrArGrArArArUrGrGrArGrArArUrUrUdTdT / antisense rArArArUrUrCrUrCrCrArUrUrUrCrUrArUrCrUdTdC,102
8,sense rArGrArUrUrArUrCrCrCrCrUrCrCrGrArCrCrUdTdT / antisense rArGrGrUrCrGrGrArGrGrGrGrArUrArArUrCrUdTdT,84.2
9,sense rArGrCrCrArGrArGrGrArArCrGrCrUrGrGrCrUdTdT / antisense rArGrCrCrArGrCrGrUrUrCrCrUrCrUrGrGrCrUdTdT,37.8
10,sense rArGrCrCrUrGrGrGrGrArArGrArUrArArGrUrAdTdT / antisense rUrArCrUrUrArUrCrUrUrCrCrCrCrArGrGrCrUdCdA,78.6
11,sense rArGrUrGrUrCrArUrUrUrCrUrArUrGrCrUrGrGdTdT / antisense rCrCrArGrCrArUrArGrArArArUrGrArCrArCrUdAdA,47.6
12,sense rArUrArArGrUrArUrGrGrUrUrArUrGrArArArAdTdT / antisense rUrUrUrUrCrArUrArArCrCrArUrArCrUrUrArUdCdT,69.3
13,sense rArUrCrCrArGrUrGrGrArArGrGrCrUrUrUrUrCdTdT / antisense rGrArArArArGrCrCrUrUrCrCrArCrUrGrGrArUdTdT,65.4
14,sense rArUrCrUrCrUrArCrCrGrArUrGrGrGrArArGrUdTdT / antisense rArCrUrUrCrCrCrArUrCrGrGrUrArGrArGrArUdCdA,67.7
15,sense rArUrGrArCrArArUrGrArUrCrUrCrUrArCrCrGdTdT / antisense rCrGrGrUrArGrArGrArUrCrArUrUrGrUrCrArUdCdT,40.5
16,sense rArUrGrGrUrUrArUrGrArArArArGrCrCrArGrAdTdT / antisense rUrCrUrGrGrCrUrUrUrUrCrArUrArArCrCrArUdAdC,39.2
17,sense rArUrGrUrUrGrArUrGrCrUrGrCrGrArArArGrAdTdT / antisense rUrCrUrUrUrCrGrCrArGrCrArUrCrArArCrArUdTdA,104
18,sense rArUrUrGrGrCrCrCrUrCrCrArGrArUrArCrArCdTdT / antisense rGrUrGrUrArUrCrUrGrGrArGrGrGrCrCrArArUdAdA,36.1
19,sense rCrArArUrGrArUrCrUrCrUrArCrCrGrArUrGrGdTdT / antisense rCrCrArUrCrGrGrUrArGrArGrArUrCrArUrUrGdTdC,86.7
20,sense rCrArCrCrCrArArArUrGrUrUrGrArUrArArArAdTdT / antisense rUrUrUrUrArUrCrArArCrArUrUrUrGrGrGrUrGdCdC,73.1
21,sense rCrArGrArGrGrArArCrGrCrUrGrGrCrUrCrCrCdTdT / antisense rGrGrGrArGrCrCrArGrCrGrUrUrCrCrUrCrUrGdGdC,42.5
22,sense rCrArGrGrUrUrUrArArUrArGrArUrGrArCrArAdTdT / antisense rUrUrGrUrCrArUrCrUrArUrUrArArArCrCrUrGdCdA,97.5
23,sense rCrArUrGrArGrCrCrUrGrGrGrGrArArGrArUrAdTdT / antisense rUrArUrCrUrUrCrCrCrCrArGrGrCrUrCrArUrGdAdA,76
24,sense rCrArUrUrArCrArGrArArArUrCrUrGrGrCrArCdTdT / antisense rGrUrGrCrCrArGrArUrUrUrCrUrGrUrArArUrGdAdA,50.1
25,sense rCrCrArCrArCrUrGrUrGrGrArArArCrCrArUrCdTdT / antisense rGrArUrGrGrUrUrUrCrCrArCrArGrUrGrUrGrGdAdT,86.1
26,sense rCrCrCrUrCrCrGrArCrCrUrCrCrUrArArArArUdTdT / antisense rArUrUrUrUrArGrGrArGrGrUrCrGrGrArGrGrGdGdA,62.4

row,Substance,normalised inhibition (eCFP-eYFP dual reporter) [%]
1,sense rCrCrUrArArArArUrGrArArArUrUrCrArUrUrAdTdT / antisense rUrArArUrGrArArUrUrUrCrArUrUrUrUrArGrGdAdG,69.6
2,sense rCrCrUrGrCrUrArArUrGrUrUrGrArUrGrCrUrGdTdT / antisense rCrArGrCrArUrCrArArCrArUrUrArGrCrArGrGdTdG,97.5
3,sense rCrUrArArUrGrGrArGrArCrUrCrArCrCrUrGrCdTdT / antisense rGrCrArGrGrUrGrArGrUrCrUrCrCrArUrUrArGdGdG,71.9
4,sense rCrUrCrCrCrUrArUrCrCrArCrArCrUrGrUrGrGdTdT / antisense rCrCrArCrArGrUrGrUrGrGrArUrArGrGrGrArGdCdC,62.9
5,sense rCrUrCrCrUrArArArArUrGrArArArUrUrCrArUdTdT / antisense rArUrGrArArUrUrUrCrArUrUrUrUrArGrGrArGdGdT,87.9
6,sense rCrUrCrUrArCrCrGrArUrGrGrGrArArGrUrCrCdTdT / antisense rGrGrArCrUrUrCrCrCrArUrCrGrGrUrArGrArGdAdT,68.3
7,sense rCrUrGrGrGrGrArArGrArUrArArGrUrArUrGrGdTdT / antisense rCrCrArUrArCrUrUrArUrCrUrUrCrCrCrCrArGdGdC,55
8,sense rGrArArGrUrCrCrUrUrArUrUrArUrUrGrGrCrCdTdT / antisense rGrGrCrCrArArUrArArUrArArGrGrArCrUrUrCdCdC,87.6
9,sense rGrArCrArArUrGrArUrCrUrCrUrArCrCrGrArUdTdT / antisense rArUrCrGrGrUrArGrArGrArUrCrArUrUrGrUrCdAdT,103
10,sense rGrArGrArArUrUrUrArArArArGrArArArArGrUdTdT / antisense rArCrUrUrUrUrCrUrUrUrUrArArArUrUrCrUrCdCdA,56.4
11,sense rGrArUrArArGrUrArUrGrGrUrUrArUrGrArArAdTdT / antisense rUrUrUrCrArUrArArCrCrArUrArCrUrUrArUrCdTdT,87.7
12,sense rGrArUrArCrArCrUrUrUrArUrGrArArGrGrUrGdTdT / antisense rCrArCrCrUrUrCrArUrArArArGrUrGrUrArUrCdTdG,66
13,sense rGrArUrUrArUrCrCrCrCrUrCrCrGrArCrCrUrCdTdT / antisense rGrArGrGrUrCrGrGrArGrGrGrGrArUrArArUrCdTdT,84.7
14,sense rGrCrCrCrUrCrCrArGrArUrArCrArCrUrUrUrAdTdT / antisense rUrArArArGrUrGrUrArUrCrUrGrGrArGrGrGrCdCdA,75.2
15,sense rGrCrUrGrCrGrArArArGrArArUrGrGrArGrGrGdTdT / antisense rCrCrCrUrCrCrArUrUrCrUrUrUrCrGrCrArGrCdAdT,63.8
16,sense rGrCrUrGrGrCrUrCrCrCrUrArUrCrCrArCrArCdTdT / antisense rGrUrGrUrGrGrArUrArGrGrGrArGrCrCrArGrCdGdT,64
17,sense rGrGrArArArCrCrArUrCrArUrGrArUrUrArGrUdTdT / antisense rArCrUrArArUrCrArUrGrArUrGrGrUrUrUrCrCdAdC,54.4
18,sense rGrGrArArGrUrCrCrUrUrArUrUrArUrUrGrGrCdTdT / antisense rGrCrCrArArUrArArUrArArGrGrArCrUrUrCrCdCdA,71
19,sense rGrGrCrUrUrUrUrCrUrGrCrArGrGrUrUrUrArAdTdT / antisense rUrUrArArArCrCrUrGrCrArGrArArArArGrCrCdTdT,83.3
20,sense rGrGrUrGrArUrGrUrGrUrGrCrArUrUrUrCrUrAdTdT / antisense rUrArGrArArArUrGrCrArCrArCrArUrCrArCrCdAdT,94.7
21,sense rGrUrUrArUrGrArArArArGrCrCrArGrArGrGrAdTdT / antisense rUrCrCrUrCrUrGrGrCrUrUrUrUrCrArUrArArCdCdA,49.3
22,sense rUrArCrCrGrArUrGrGrGrArArGrUrCrCrUrUrAdTdT / antisense rUrArArGrGrArCrUrUrCrCrCrArUrCrGrGrUrAdGdA,93.1
23,sense rUrArUrCrCrArCrArCrUrGrUrGrGrArArArCrCdTdT / antisense rGrGrUrUrUrCrCrArCrArGrUrGrUrGrGrArUrAdGdG,41.2
24,sense rUrArUrGrGrUrUrArUrGrArArArArGrCrCrArGdTdT / antisense rCrUrGrGrCrUrUrUrUrCrArUrArArCrCrArUrAdCdT,31.8
25,sense rUrCrArUrGrArGrCrCrUrGrGrGrGrArArGrArUdTdT / antisense rArUrCrUrUrCrCrCrCrArGrGrCrUrCrArUrGrAdAdG,76.4
26,sense rUrCrCrArCrArCrUrGrUrGrGrArArArCrCrArUdTdT / antisense rArUrGrGrUrUrUrCrCrArCrArGrUrGrUrGrGrAdTdA,85.3
